Data as given in US20230148599A1, “FUNGICIDAL MIXTURES CONTAINING PYRAZOLE DERIVATIVES” (FMC Corporation, priority 2020, published 2023).

How the values were obtained:
Assay type in all cases: in vivo
Conditions in all cases: 50 ppm, 100 = 100% disease control, 0 = no control
Septoria tritici = test: Test A: wheat leaf blotch, preventive spray on wheat seedlings
Text: (§1) General protocol for preparing test suspensions for Tests A-F: the test compounds were first dissolved in acetone in an amount equal to 3% of the final volume and then suspended at the desired concentration (in ppm) in acetone and purified water (50/50 mix by volume) containing 250 ppm of the surfactant PEG400 (polyhydric alcohol esters). The resulting test suspensions were then used in Tests A-F.
(§2) The test solution was sprayed to the point of run-off on wheat seedlings. The following day the seedlings were inoculated with a spore suspension of Septoria tritici (the causal agent of wheat leaf blotch) and incubated in a saturated atmosphere at 24° C. for 48 h, and then moved to a growth chamber at 20° C. for 17 days, after which time disease ratings were made.
(§3) A rating of 100 indicates 100% disease control and a rating of 0 indicates no disease control (relative to the controls). A dash (−) indicates the compound was not tested.

[1] = system: Puccinia recondita f. sp. tritici; test: Test B: wheat leaf rust, preventive spray on wheat seedlings
Text: as §1
as §2, with “Puccinia recondita f. sp.” for “Septoria”, “rust)” for “blotch)”, “20°” for “24°”, “24” for “48”, “7” for “17”
as §3

Phakopsora pachyrhizi = test: Test D: Asian soybean rust, preventive spray on soybean seedlings
Text: as §1
The test solution was sprayed to the point of run-off on soybean seedlings. The following day the seedlings were inoculated with a spore suspension of Phakopsora pachyrhizi (the causal agent of Asian soybean rust) and incubated in a saturated atmosphere at 22° C. for 24 h and then moved to a growth chamber at 22° C. for 8 days, after which time visual disease ratings were made.
as §3

Botrytis cinerea = test: Test E: tomato Botrytis, preventive spray on tomato seedlings
Text: as §1
(§4) The test suspension was sprayed to the point of run-off on tomato seedlings. The following day the seedlings were inoculated with a spore suspension of Botrytis cinerea (the causal agent of tomato Botrytis) and incubated in a saturated atmosphere at 20° C. for 48 h, and then moved to a growth chamber at 24° C. for 3 days, after which time visual disease ratings were made.
as §3

Alternaria solani = test: Test F: tomato early blight, preventive spray on tomato seedlings
Text: as §1
as §4, with “Alternaria solani” for “Botrytis cinerea”, “early blight)” for “Botrytis)”, “27°” for “20°”, “20°” for “24°”
as §3

[2] = system: Blumeria graminis f. sp. tritici; test: Test C: wheat powdery mildew, preventive spray on wheat seedlings
Text: as §1
The test suspension was sprayed to the point of run-off on wheat seedlings. The following day the seedlings were inoculated with a spore dust of Blumeria graminis f. sp. tritici, (also known as Erysiphe graminis f. sp. tritici, the causal agent of wheat powdery mildew) and incubated in a growth chamber at 20° C. for 8 days, after which time visual disease ratings were made.
as §3

SMILES | pest or weed control at 50 ppm (Septoria tritici; Zymoseptoria tritici, 456 h, read-out: Test A disease control rating) | pest or weed control at 50 ppm ([1]; 192 h, read-out: Test B disease control rating) | pest or weed control at 50 ppm (Phakopsora pachyrhizi; 216 h, read-out: Test D disease control rating) | pest or weed control at 50 ppm (Botrytis cinerea; 120 h, read-out: Test E disease control rating) | pest or weed control at 50 ppm (Alternaria solani; 120 h, read-out: Test F disease control rating) | Test B disease control rating [1] | Test C disease control rating [2] | Test D disease control rating (Phakopsora pachyrhizi) | Test E disease control rating (Botrytis cinerea) | Test F disease control rating (Alternaria solani) | Test A disease control rating (Septoria tritici)
Cc1nn(C)c(N(C)c2c(F)cccc2[N+](=O)[O-])c1-c1ccc(F)cc1Cl [Compound 172] | 100% | 100% | 0% | 99% | 40% |  |  |  |  |  | 
CCc1ccc(Nc2c(-c3ccc(F)cc3Cl)c(C)nn2C)c([N+](=O)[O-])c1 [compound 6] |  |  |  |  |  | 74% | 27% | 0% | 55% | 0% | 
Cc1nn(C)c(Nc2c([N+](=O)[O-])ccc(F)c2F)c1-c1ccc(F)cc1Cl [compound 7] |  |  |  |  |  | 99% | 94% | 96% | 99% | 89% | 100%
Cc1nn(C)c(Nc2c(Cl)cc(Br)cc2[N+](=O)[O-])c1-c1ccc(F)cc1Cl [compound 8] |  |  |  |  |  | 99% | 92% | 73% | 99% | 73% | 99%
Cc1nn(C)c(Nc2c(F)cc(F)cc2[N+](=O)[O-])c1-c1ccc(Cl)cc1Cl [compound 9] |  |  |  |  |  | 100% | 97% | 0% | 97% | 99% | 100%
Cc1nn(C)c(Nc2c(Cl)cc(F)cc2[N+](=O)[O-])c1-c1ccc(Cl)cc1Cl [compound 10] |  |  |  |  |  | 99% | 48% | 0% | 68% | 9% | 100%
Cc1nn(C)c(Nc2c(F)cc(Cl)cc2[N+](=O)[O-])c1-c1ccc(Cl)cc1Cl [compound 11] |  |  |  |  |  | 98% | 97% | 0% | 98% | 99% | 100%
Cc1nn(C)c(Nc2c(F)cccc2[N+](=O)[O-])c1-c1ccc(Cl)cc1F [compound 12] |  |  |  |  |  | 99% | 81% | 0% | 97% | 53% | 100%
Cc1nn(C)c(Nc2c(F)cc(F)cc2[N+](=O)[O-])c1-c1ccc(Cl)cc1F [compound 13] |  |  |  |  |  | 99% | 97% | 19% | 68% | 89% | 100%
Cc1ccc(Nc2c(-c3ccc(C#N)cc3Cl)c(C)nn2C)c([N+](=O)[O-])c1 [compound 14] |  |  |  |  |  | 97% | 83% | 48% | 96% | 83% | 100%
Cc1cc(Cl)c(Nc2c(-c3ccc(F)cc3F)c(C)nn2C)c([N+](=O)[O-])c1 [compound 15] |  |  |  |  |  | 100% | 98% | 61% | 99% | 53% | 100%
CCc1nn(C)c(Nc2c(Cl)cc(C)cc2[N+](=O)[O-])c1-c1ccc(F)cc1F [compound 16] |  |  |  |  |  | 99% | 98% | 50% | 99% | 0% | 100%
CCc1nn(C)c(Nc2c(Cl)cccc2[N+](=O)[O-])c1-c1ccc(F)cc1F [compound 17] |  |  |  |  |  | 92% | 94% | 0% | 99% | 9% | 100%
Cc1nn(C)c(Nc2ccc(F)cc2[N+](=O)[O-])c1-c1ccc(F)cc1Br [compound 20] |  |  |  |  |  | 89% | 92% | 0% | 99% | 26% | 100%
Cc1nn(C)c(Nc2ccc(Br)cc2[N+](=O)[O-])c1-c1ccc(F)cc1Br [compound 21] |  |  |  |  |  | 86% | 84% | 0% | 95% | 17% | 100%
Cc1nn(C)c(Nc2ccc(Cl)cc2[N+](=O)[O-])c1-c1c(F)cccc1Cl [compound 22] |  |  |  |  |  | 93% | 97% | 0% | 99% | 64% | 100%
Cc1cc(Cl)c(Nc2c(-c3c(F)cccc3Cl)c(C)nn2C)c([N+](=O)[O-])c1 [compound 24] |  |  |  |  |  | 89% | 0% | 0% | 97% | 0% | 100%
Cc1nn(C)c(Nc2c(F)cccc2[N+](=O)[O-])c1-c1c(F)cccc1Cl [compound 25] |  |  |  |  |  | 100% | 99% | 98% | 100% | 98% | 100%
Cc1ccc(Nc2c(-c3ccc(F)cc3Cl)c(C)nn2C)c([N+](=O)[O-])c1 [compound 26] |  |  |  |  |  | 99% | 94% | 77% | 100% | 68% | 100%
COc1ccc(Nc2c(-c3c(F)cccc3F)c(C)nn2C)c([N+](=O)[O-])c1 [compound 87] |  |  |  |  |  | 99% | 98% | 0% | 98% | 93% | 
COc1ccc(Nc2c(-c3ccc(F)cc3F)c(C)nn2C)c([N+](=O)[O-])c1 [compound 88] |  |  |  |  |  | 97% | 84% | 0% | 99% | 9% | 
COc1ccc(Nc2c(-c3c(F)cc(F)cc3Cl)c(C)nn2C)c([N+](=O)[O-])c1 [compound 89] |  |  |  |  |  | 100% | 99% | 80% | 99% | 99% | 
Cc1ccc(Nc2c(-c3c(F)cc(F)cc3Cl)c(C)nn2C)c([N+](=O)[O-])c1 [compound 106] |  |  |  |  |  | 100% | 98% | 0% | 99% | 68% | 
Cc1ccc(Nc2c(-c3ccc(F)cc3F)c(C)nn2C)c([N+](=O)[O-])c1 [compound 107] |  |  |  |  |  | 91% | 61% | 0% | 98% | 0% | 
